pEC50: −log10 of the molar value. Entries after “also recorded” stand apart in the source; their conditions may differ.
Legend:
[1] = tested on: U87; assay: Neurosphere formation, glioblastoma cell line U87; assay type: cell-based; details: lowest dose tested 0.5 μM (FIG. 11B)
Experimental: (§1) The activity of the three test compounds to inhibit neurosphere formation was also tested in a neuroblastoma cell line SHSY5Y and a glioblastomoa cell line U87. All three compounds attenuated neurosphere formation in both cell lines, to varying degrees of efficacy (FIGS. 11A,B). […] None of the compounds affected cell viability.

[2] = tested on: MCF-7 or MDA MB231 cells; assay: General cell viability of breast cancer cells; assay type: cell-based; details: 0.5 μM dose
[3] = tested on: MDA MB231 cells; assay: Mammosphere formation (breast cancer stem cell self-renewal), MDA MB231; assay type: cell-based; details: compound first 3 days, scored day 14 (P2), 50, 5 and 0.5 μM
Excerpt: (§2) Mammosphere culture growth presents a useful indicator of the presence of breast cancer cells with stem cell-like properties. Breast cancer cell lines grown as mammospheres (under non-adherent plating conditions) recapitulate the three-dimensional organization of tumors. Importantly, assessment of stem cell self-renewal capacity can be achieved through dispersion of mammospheres to single cells and subsequent limited dilution replating. […] At day 7, mammospheres were collected, dispersed to single cells and replated at limiting dilution (P1). Spheroids were scored at day 14 (P2). Mammosphere forming units (MFUs) are defined as spheroid bodies >100 μm (MCF-7 cells) or >65 μm (MDA MB231 cells) diameter after 7 (P1) or 14 (P2) days growth in non-adherent culture.

[4] = tested on: Xenopus oocytes; assay: Xenopus oocyte bioassay: oocyte maturation (GVBD) in the absence of progesterone; assay type: cell-based; details: for activation of GVBD: no progesterone (FIG. 6)
[5] = tested on: Musashi2 (Msi2); assay: Western blot of treated oocytes, Msi2 phosphorylation; assay type: cell-based, Xenopus; details: FIG. 8B
Excerpt: (§3) To begin to decipher the mechanism of action of the compounds that modified oocyte maturation, their effects on regulators of the meiotic cell cycle were examined. In particular, Musashi (Msi1) phosphorylation, Msi2 phosphorylation, MAP kinase phosphorylation, and Cdc2 (also called CDK1) dephosphorylation were examined in Xenopus oocytes treated with a modifying compound or only DMSO (i.e., control). The oocytes were processed for Western blot analysis using standard procedures, and the blots were probed with antibodies specific for phosphorylated or non-phosphorylated forms of the proteins of interest.

[6] = tested on: Cdc2 (also called CDK1); assay: Western blot of treated oocytes, Cdc2 (CDK1) dephosphorylation / MPF activation; assay type: cell-based, Xenopus; details: for dephosphorylation of cdc2 (CDK1), activation of MPF: activators, no progesterone, PNR-5-46 5 μM, JVM-9 100 μM (FIG. 8A)
Excerpt: as §3

[7] = tested on: Musashi1 (Msi1); assay: Western blot of treated oocytes, Msi1 phosphorylation; assay type: cell-based, Xenopus
Excerpt: as §3

[8] = tested on: Xenopus oocytes; assay: Xenopus oocyte bioassay: oocyte maturation (GVBD) in the absence of progesterone; assay type: cell-based; details: screen at 100 μM
Experimental: (§4) Oocyte maturation was monitored at regular intervals using a high content image capture procedure. Immature stage VI Xenopus oocytes were transferred to wells of a flat bottom 96-well plate containing about 178 μL of L15 culture media. The oocytes were transferred using wide mouth 200 μL pipette tips with minimal transfer of culture medium (e.g., about 20 μL). Generally, the oocytes oriented with the dark-pigmented animal hemisphere facing up due to the higher density of the yolk-containing vegetal hemisphere. Incorrectly orientated oocytes were gently manipulated using a drawn-out capillary tube or other tool to rotate them into the correct orientation. […] The oocytes were incubated for about 16 hours (i.e., overnight) at 16-25° C. in the presence of 1% DMSO (i.e., 2 μL of 100% DMSO).
Oocyte maturation was stimulated by the addition of progesterone. For this, 2 μL of 1000× stock solution (2 mg/mL in ethanol) was added to the appropriate wells to yield a final concentration of 2 μg/mL (although other concentrations of progesterone may be employed). […]
The plate was imaged prior to and after addition of progesterone (i.e., images were taken at regular intervals over a period of 7 hours). Oocyte maturation was phenotypically assessed by the appearance of a white spot at the animal pole of the oocyte. […]

[9] = tested on: MCF-7 cells; assay: Mammosphere formation (breast cancer stem cell self-renewal), MCF-7; assay type: cell-based; details: compound first 3 days, scored day 14 (P2), 50, 5 and 0.5 μM
Excerpt: as §2

[10] = tested on: MAP kinase (MAPK); assay: Western blot of treated oocytes, MAP kinase phosphorylation; assay type: cell-based, Xenopus
Excerpt: as §3

[11] = tested on: SHSY5Y; assay: Neurosphere formation, neuroblastoma cell line SHSY5Y; assay type: cell-based; details: lowest dose tested 0.5 μM (FIG. 11A)
Experimental: as §1

[12] = tested on: Xenopus oocytes; assay: Xenopus oocyte bioassay: progesterone-induced oocyte maturation (GVBD); assay type: cell-based
Experimental: as §4
Oocyte maturation was stimulated by the addition of progesterone. For this, 2 μL of 1000× stock solution (2 mg/mL in ethanol) was added to the appropriate wells to yield a final concentration of 2 μg/mL (although other concentrations of progesterone may be employed). The 96-well plate was imaged from the top-down (see FIG. 4E) using a 36-megapixel Nikon D800 SLR camera with an AF Micro Nikkor 60 mm, f/2.8 lens, mounted on a dedicated copy stand (with adjustable flanking light sources).
The plate was imaged prior to and after addition of progesterone (i.e., images were taken at regular intervals over a period of 7 hours). Oocyte maturation was phenotypically assessed by the appearance of a white spot at the animal pole of the oocyte. The white spot is due to migration of the germinal vesicle towards the animal pole prior to germinal vesicle breakdown (GVBD). The high resolution images were digitally zoomed after capture to analyze the maturation status of oocytes in individual wells of the plate (FIGS. 4A-D).
The Xenopus oocyte bioassay was used to screen a collection of about 2000 low molecular weight small molecules. Oocytes were distributed among multi-well plates essentially as described above in Example 1. The test compounds were dissolved in DMSO to make 100× stock solutions. The test compounds were added to the appropriate wells at a final concentration of 100 μM (and 1% DMSO). No drug control oocytes were exposed to 1% DMSO only. Sixteen hours later, progesterone was added to the appropriate wells, with the first and last wells of each plate containing the no drug control oocytes. The rate of maturation in the first and last wells served as an intra-assay control for time taken for progesterone addition across each multiwell plate. The plates were imaged essentially as described above in Example 1.

[13] = activators, no progesterone, PNR-5-46 5 μM, JVM-9 100 μM (FIG. 8A)
[14] = in response to progesterone (FIG. 9)

Compound | neurosphere formation / stem cell self-renewal [1] | general cell viability [2] | mammosphere formation relative to DMSO-treated control cells [3] | dephosphorylation of cdc2 (CDK1), activation of MPF [6] | progesterone-independent oocyte maturation (activator) [8] | mammosphere formation relative to DMSO-treated control cells [9] | phosphorylation of MAP kinase [10, 13] | neurosphere formation / stem cell self-renewal [11] | other results
C/C1=C\CC[C@@]2(C)O[C@H]2[C@H]2OC(=O)/C(=C\c3cccc(Br)c3)[C@@H]2CC1 [PNR-5-46] | not | no significant effect | effectively inhibited | dephosphorylation of cdc2 | hormone-independent activation of maturation; also recorded: activators; also recorded: induced oocyte maturation | effectively inhibited | promoted phosphorylation | not | pEC50 ([4]; Xenopus laevis, Oocyte, absence of progesterone, read-out: EC50 (activation of oocyte maturation)): 5.15; percent of oocytes that initiated GVBD ([4]; by about 4 hours, no progesterone, 100 μM PNR-5-46 (FIG. 5)): About 35%; activation (phosphorylation) of Msi2 [5]: triggered activation; activation (phosphorylation) of Msi1 ([7]; not shown): triggered activation
C/C1=C\CC[C@@]2(C)O[C@H]2[C@H]2OC(=O)/C(=C\c3ccc(N)cc3)[C@@H]2CC1 [PNR-5-41] | Significant inhibition | – | did not | – | – | did not | – | Significant inhibition | pEC50 ([12]; Xenopus laevis, Oocyte, progesterone-induced, p<0.05, n=5 vs DMSO only, read-out: EC50 (inhibition of progesterone-induced maturation)): 5.30; effect on rate of progesterone-induced oocyte maturation (inhibitor) ([12]; progesterone-induced): attenuation of progesterone-induced GVBD; also recorded: inhibitor; also recorded: inhibited progesterone-induced maturation in a dose-dependent manner; de-phosphorylation and activation of cyclin B/CDK1 (MPF) [6, 14]: blocked; phosphorylation of Msi1 [7, 14]: did not affect phosphorylation; phosphorylation of MAP kinase [10, 14]: did not affect phosphorylation
CC(=O)[C@H]1CC[C@H]2[C@@H]3CCC4=CC(=O)CC[C@]4(C)[C@H]3CC[C@]12C [progesterone, reference compound] | – | – | – | – | – | – | – | – | percent of oocytes that started GVBD ([12]; by about 7 hours, progesterone-treated oocytes (FIG. 5)): About 35%
C/C1=C\CC[C@@]2(C)O[C@H]2[C@H]2OC(=O)[C@@H](CNCCCn3ccnc3)[C@@H]2CC1 [JVM-20] | particularly effective | no significant effect | effectively inhibited | – | – | effectively inhibited | – | particularly effective | effect on progesterone-stimulated maturation ([12]; from 1 to 50 μM): accelerate; effect on progesterone-stimulated maturation ([12]; high dose (100 μM)): inhibit
C/C1=C\CC[C@@]2(C)O[C@H]2[C@H]2OC(=O)[C@@H](CNc3nc4ccccc4[nH]3)[C@@H]2CC1 [JVM-9] | – | – | – | dephosphorylation of cdc2 | activation of maturation; also recorded: activators; also recorded: activated spontaneous oocyte maturation | – | promoted phosphorylation | – | activation of GVBD ([4]; 10 μM): less effective; activation of GVBD ([4]; 100 and 50 μM): activated GVBD

Source: US20160077084A1, “AMPHIBIAN OOCYTE OR EMBRYO BIOASSAY” (THE BOARD OF TRUSTEES OF THE UNIVERSITY OF ARKANSAS, priority 2013, published 2016)
